PubChem BioAssay AID1508591

conditions: rat; liver microsomes; pH 7.4; 15.0 min; 1.0 µM

SMILES | half-life [min]
CC(C)c1ccccc1-c1ncc(F)c(NC2(c3ccc(-c4cccnc4)cc3)CC2)n1 | 8.9
Cc1ccc(S(=O)(=O)Nc2cnccc2C(=O)Nc2nc(-c3ccc(F)cc3)cs2)cc1 | > 30
Cc1ccc(-c2cc(C(=O)Nc3ccc(S(N)(=O)=O)cc3)c3cccc(C)c3n2)cc1C | > 30
CCOc1ccccc1CNS(=O)(=O)c1ccc(-c2cnc(C3CC3)o2)cc1 | 1.64
CC(C)c1ccccc1-c1ncc(F)c(NCC2CCN(c3cnccn3)C2)n1 (centres undefined) | 2.2
COCc1cc(C)nc(SCC(=O)c2ccc(O)c(O)c2)c1C#N | 19
Cc1cnccc1-c1nc(Nc2ccc(F)c(F)c2)c2ccccc2n1 | 10
O=C1CCCC2=C1C(c1[nH]ncc1Cl)N=C(Nc1nc3c(Cl)cccc3o1)N2 (centres undefined) | 3.4
Fc1ccc(Cc2nc3nccc(-c4cccs4)n3n2)cc1 | 2.95
CCOc1ccc(-c2nc(SCC(=O)Nc3ccc(C)c(C)c3)n3[nH]c(=O)cc3n2)cc1 | 19.9
c1ccc2c(Nc3ccc4nc[nH]c4c3)nc(-c3ccncc3)nc2c1 | 16
N#Cc1ccc(Nc2ncc(-c3cccc4ccccc34)o2)cc1 | > 30
COC(=O)c1ccc(Nc2nc(-c3ccncc3)nc3ccccc23)cc1OC | 9.5
COc1cc(-c2nc(-c3c(C)noc3C)cc3c2cc(C)n3CCN(C)C)ccn1 | 19.7
COc1ccc(C2=Nn3c([n+](C)c4ccccc43)SC2)cc1 | > 30
CC1CCN(S(=O)(=O)c2ccc3c(c2)C(C)(C)C(=O)N3CC(=O)NCc2ccco2)CC1 | 1.8
Cc1ccc(-c2nc(NCC(=O)Nc3cccc(C(=O)O)c3)c3ccccc3n2)cc1 | > 30
CCc1[nH]c2ccc(CNC(=O)Cc3cnc4c(C)cccn34)cc2c1C | 2.4
C=CC(=O)Nc1cccc(Oc2nc(Nc3ccc(N4CCN(C)CC4)cc3)ncc2Cl)c1 | 3.06
O=C(Nc1nc(-c2ccc(F)cc2)cs1)c1ccncc1NS(=O)(=O)c1ccc(F)cc1 | > 30
COc1cc([C@@H]2c3cc4c(cc3[C@H](O)[C@H]3COC(=O)[C@H]23)OCO4)cc(OC)c1OC | > 30
Cc1ccccc1C(=O)N1CCc2cc(-c3nc(NC(=O)CC4CCCCC4)sc3C)ccc21 | 11
c1ccc2c(Nc3ccon3)nc(-c3ccncc3)nc2c1 | 6.2
COc1c(NS(=O)(=O)c2ccc(C)cc2)cccc1C(=O)Nc1nc(-c2ccccc2)cs1 | 9.7
O=C(Cc1ccc(-c2csc(Nc3ccc(F)cc3)n2)s1)N1CCOCC1 | > 30

SMILES | half-life [min]
CCCN1CNc2c(c(=O)[nH]c(=S)n2Cc2ccc(OC)c(OC)c2)C1 | > 30
CC(C)Oc1cccc(-c2ccnc(N3CCC(C(N)=O)CC3)n2)c1 | 11.6
COc1cc(-c2nc(Nc3ccc(F)c(F)c3)c3ccccc3n2)c(F)cn1 | > 30
CC1=C(C(=O)Nc2ccccc2Cl)C(c2ccccc2Br)N=C(Nc2nc3ccccc3o2)N1 (centres undefined) | > 30
CCN1CCN(c2ccc(Nc3ccc(-c4ccc(C(N)=O)cc4)n4ncnc34)cc2)CC1 | > 30
Nc1c(-c2ccccc2)cnc2c(-c3ccccc3)cnn12 | > 30
Cc1c([C@@H](C)C2NC[C@H](C)C[C@@H]2O)ccc2c1C[C@@H]1[C@H]2CC=C2C[C@@H](O)CC[C@@]21C (some centres undefined) | > 30
Cc1nc2ccc(Nc3nc(-c4ccncc4)nc4ccccc34)cc2s1 | 10
CN1CCCC(CC2c3ccccc3Sc3ccccc32)C1 (centres undefined) | 1.4
Cc1csc2nc(-c3cccc(NC(=O)c4cccc(F)c4)c3)cn12 | 3.67
COc1ccc(OC)c(CNc2ncnc3onc(C)c23)c1 | 5.68
Cc1ccccc1C(=O)N1CCc2cc(-c3ccnc(NC(=O)Cc4ccccc4)n3)ccc21 | 5.5
Cc1ccc(-c2cc(C(=O)Nc3ccc(S(C)(=O)=O)cc3)c3ccccc3n2)cc1C | > 30
COc1ccc(C2(C(=O)N3CCC(n4cc(-c5nc(C)no5)nn4)CC3)CC2)cc1 | 7.38
Cc1ccc(-n2c(=O)c3oc4ccccc4c3n(CC(=O)Nc3ccc(F)c(Cl)c3)c2=O)cc1C | 29.6
NC(=O)C1CCN(c2nnc(-c3ccc(Br)cc3)s2)CC1 | 7.89
CN(C)C(=O)c1nc(-c2ccc(S(C)(=O)=O)cc2)c2cnccn12 | > 30
CN(C(=O)CNC(=O)c1ccccc1OCC(=O)Nc1ccc(I)cc1)c1ccccc1 | 1.44
O=C(Cc1ccc(Cl)c(Cl)c1)Nc1ccc([S+](=O)([O-])Nc2ccccn2)cc1 | 8.3
O=C1CCCC2=C1C(c1[nH]ncc1Cl)N=C(Nc1nc3cc(F)ccc3o1)N2 (centres undefined) | 17
Cc1nn(-c2ccccc2)c2nc(C3CC3)cc(C(=O)Nc3ccc(F)cc3)c12 | > 30
Cc1ccc(S(=O)(=O)Nc2ncccc2C(=O)Nc2nc(-c3ccccc3)cs2)cc1 | 14
CC(C)(C)C(=O)N1CCN(c2nccc(Nc3ccccc3Cl)n2)CC1 | 4.07
Cc1cnc(-c2ccccc2C2COC2)nc1NCc1ccc(-n2ccnn2)cc1 | > 30
CN1CCN(C(=O)c2ccc3cc(CCNc4ncnc5ccc(C#N)cc45)ccc3c2)CC1 | 8.11

SMILES | half-life [min]
Cc1ccc(S(=O)(=O)Nc2ccccc2C(=O)Nc2ccc(-c3ccccc3)nn2)cc1 | 4
Cc1cc(SCc2sc(-c3ccc(C(F)(F)F)cc3)nc2C)ccc1OCC(=O)O | > 30
Cc1ccc(S(=O)(=O)Nc2cnccc2C(=O)Nc2nc3ccccc3s2)cc1 | 4.1
CCn1c(C(=O)N2CCCC(C(=O)NCCc3ccc(C)cc3)C2)cc2sccc21 (centres undefined) | 1.7
O=c1n(-c2ccc(Cl)cc2)nc2n1CCN(Cc1ccc(C(F)(F)F)cc1)C2 | > 30
COc1cccc2nc(-c3cccs3)nc(NN3C(=O)C=C(C)C3=O)c12 | 4.26
Cc1ccc2c(c1)c(=O)c1ccccc1n2CCCC(=O)Nc1cc(Cl)ccc1C | 3.79
Nc1c(S(=O)(=O)c2cccs2)c2nc3ccccc3nc2n1Cc1ccccc1 | 1.27
FC(F)(F)c1cccc(N2CCN(C(=S)Nc3cc4ccccc4cn3)CC2)c1 | > 30
O=C(Nc1ccc(S(=O)(=O)Nc2nccs2)cc1)c1cccnc1 | > 30
Cc1cccc2nc(-c3cccnc3)c(Nc3ccc(C(C)C)cc3)n12 | 1
CC(C(O)c1ccc(O)cc1)N1CCC(Cc2ccccc2)CC1 (centres undefined) | 2.55
c1ccc(-c2cc(Nc3nc(-c4ccncc4)nc4ccccc34)n[nH]2)cc1 | 11
CC(=O)N1CCc2c(sc3c2c(=O)n(-c2ccccc2)c(=O)n3Cc2cccc(C(F)(F)F)c2)C1 | 25
COc1ccc(-c2nc3sc(CCNC(=O)C(C)(C)C)c(C)n3n2)cc1 | 9.33
CCCC1=Nc2cc(C(=O)NC3CCCC3)ccc2Sc2ccc(C)cc21 | 1.41
Cc1cc(C)nc(NC(=S)N2CCN(c3cc(C(F)(F)F)nc4ccc(C(F)(F)F)cc34)CC2)c1 | > 30
COc1ccc(C(=O)NC2CCCc3c2[nH]c2ccccc32)cc1OC (centres undefined) | 24.6
Brc1ccc(-c2csc(N3CCNCC3)n2)cc1 | 3.31
Cc1nn(Cc2ccc(Cl)cc2)c(C)c1NC(=O)c1cc(-c2ccc3c(c2)OCO3)on1 | 6.4
Cc1cc(C)nc(NC(=S)N2CCN(c3ccc(C(F)(F)F)cc3Cl)CC2)c1 | > 30
Cc1ccc(-c2cc(C(=O)Nc3ccc(-c4nn[nH]n4)cc3)c3ccccc3n2)cc1C | > 30
CC(C)(C)CN1CCNc2cc(Nc3ccccc3)ncc2C1 | 1.64
CCc1ccc(C2Sc3ccccc3NC3=C2C(=O)c2ccccc23)cc1 (centres undefined) | 1.81
